Target: T1, Menin-MLL (Homo sapiens, UniProt O00255)
T1 construct: His-Menin (M1-L615 end); purchased BIORTUS BP9210
T1 sequence (O00255 1-615 isoform O00255-1): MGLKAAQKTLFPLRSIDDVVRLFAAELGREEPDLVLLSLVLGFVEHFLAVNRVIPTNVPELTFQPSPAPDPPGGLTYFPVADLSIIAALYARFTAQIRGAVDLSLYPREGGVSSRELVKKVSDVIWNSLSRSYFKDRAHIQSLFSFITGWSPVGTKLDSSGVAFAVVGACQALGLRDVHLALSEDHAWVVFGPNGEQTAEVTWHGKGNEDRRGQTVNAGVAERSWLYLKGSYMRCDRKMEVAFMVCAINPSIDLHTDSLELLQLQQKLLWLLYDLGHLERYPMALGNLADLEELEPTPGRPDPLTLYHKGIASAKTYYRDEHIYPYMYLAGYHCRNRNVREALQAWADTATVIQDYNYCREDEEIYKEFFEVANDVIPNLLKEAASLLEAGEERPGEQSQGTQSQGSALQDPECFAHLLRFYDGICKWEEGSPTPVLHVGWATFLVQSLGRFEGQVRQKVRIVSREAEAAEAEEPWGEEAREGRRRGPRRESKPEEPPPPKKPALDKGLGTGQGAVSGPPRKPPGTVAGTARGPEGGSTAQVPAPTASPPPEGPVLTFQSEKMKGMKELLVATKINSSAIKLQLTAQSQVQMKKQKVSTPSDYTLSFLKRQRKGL
Test: Inhibitory activity against Menin-MLL binding (fluorescence polarization)
Details: Menin-MLL IC50, fluorescence polarization; 150 nM His-Menin, 15 nM FITC-MLL; 25°C for 60 min
How it was run: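 His-Menin (M1-L615, 150 nM) preincubated with compound 15 min at 25 °C in HEPES pH 7.5, 50 mM NaCl, 1 mM DTT, 0.01% BSA, then 15 nM FITC-MLL4-43 peptide added for 60 min at 25 °C. Fluorescence polarization read; IC50 from 4-parameter logistic fit, duplicates.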

First: Cc1nc(F)c2c(-c3ccc(F)cc3C(=O)N3CCOC[C@H]3C)cc(C3CN([C@@H](C)C4CCN(C(=O)[C@@H]5C[C@@H]5F)CC4)C3)cn12 [Example 303]
Second: CCN(C(=O)c1cc(F)ccc1-c1cc(N2CCC(NC[C@H]3CC[C@H](N4CCOC4=O)CC3)CC2)cc2c1cnn2C)C(C)C [Example 36, N-ethyl-5-fluoro-2-{1-methyl-6-[4-({[(1r,4r)-4-(2-oxo-1,3-oxazolidin-3-yl)cyclohexyl]methyl}amino)piperidin-1-yl]-1H-indazol-4-yl}-N-(isopropyl)benzamide]
The IC50 of the first is 31-fold lower: 5 nM for the first, 156 nM for the second. The first is the more potent here.

First: CCN(C(=O)c1cc(F)ccc1-c1cc(C2CCN(C[C@H]3CC[C@H](NS(=O)(=O)CC)CC3)C2)cc2cncn12)C(C)C (mixture of isomers) [Example 25, N-ethyl-5-fluoro-N-isopropyl-2-[7-(1-{[(1r,4r)-4-ethanesulfonamidocyclohexyl]methyl}pyrrolidin-3-yl)imidazo[1,5-a]pyridin-5-yl]benzamide]
Second: CCN(C(=O)c1cc(F)ccc1-c1cc(C2(F)CCN(C[C@H]3CC[C@H](NS(=O)(=O)CC)CC3)C2)cc2c1cnn2C)C(C)C (stereo partly shown) [Compound 61, N-ethyl-5-fluoro-2-[6-(3-fluoro-1-{[(1r,4r)-4-ethanesulfonamidocyclohexyl]methyl}pyrrolidin-3-yl)-1-methyl-1H-indazol-4-yl]-N-(isopropyl)benzamide]
The IC50 of the first is 3.1-fold lower: 19 nM for the first, 58 nM for the second. The first is the more potent here.

With `CCN(C(=O)c1cc(F)ccc1-c1cc(C2CCN(C[C@]3(O)CC[C@@H](NS(=O)(=O)CC)CC3)C2)cc2c1cnn2C)C(C)C` (stereo partly shown) [Compound 55, N-ethyl-5-fluoro-2-[1-methyl-6-(1-{[(1s,4s)-4-ethanesulfonamido-1-hydroxylcyclohexyl]methyl}pyrrolidin-3-yl)-1H-indazol-4-yl]-N-(isopropyl)benzamide] the IC50 was 21 nM.

Same assay, conditions: fluorescence polarization; 150 nM His-Menin, 15 nM FITC-MLL; 25°C for 60 min; read-out: Menin-MLL IC50

`CCS(=O)(=O)NC1CCC(CN2CCC(c3cc(-c4ccc(F)cc4C(=O)N4CCC(F)(F)CC4C)c4cnn(C)c4c3)C2)CC1` (stereo not shown) [Example 101, N-{4-[(3-{4-[2-(4,4-difluoro-2-methylpiperidin-1-carbonyl)-4-fluorophenyl]-1-methyl-1H-indazol-6-yl}pyrrolidin-1-yl)methyl]cyclohexyl}ethan-1-sulfonamide] and `Cc1nc(F)c2c(-c3ccc(F)cc3C(=O)N3CCOC[C@H]3C)cc(C3CN(C[C@H]4CC[C@H](n5cncn5)CC4)C3)cn12` [Example 253] are within 1.5-fold of each other in IC50: 45.5 nM for the first, 39 nM for the second.

Going from `CCN(C(=O)c1cc(F)ccc1-c1cc(C2CN(C(C[C@@H](O)CO)C(C)C)C2)cn2c(C)ncc12)C(C)C` (stereo partly drawn) [Example 438, 2-(6-{1-[(5R)-5,6-dihydroxyl-2-methylhexan-3-yl]azacyclobutan-3-yl}-3-methylimidazo[1,5-a]pyridin-8-yl)-N-ethyl-5-fluoro-N-(isopropyl)benzamide] to `CCN(C(=O)c1cc(F)ccc1-c1cc(C2CN([C@H](CCCN3CCN[C@@H](CF)C3)C(C)C)C2)cn2c(C)ncc12)C(C)C` [Example 500], the IC50 falls from 14 nM to 2.2 nM (6.4-fold).

Going from `CCC(C1CCN(C(C)=O)CC1)N1CC(c2cc(-c3ccc(F)cc3C(=O)N3CCOC[C@H]3C)c3c(F)nc(C)n3c2)C1` (stereo partly drawn) [Example 280, 1-(4-{1-[3-(1-fluoro-8-{4-fluoro-2-[(3R)-3-methylmorpholin-4-carbonyl]phenyl}-3-methylimidazo[1,5-a]pyridin-6-yl)azacyclobutan-1-yl]propyl}piperidin-1-yl)ethan-1-one] to `Cc1nc(F)c2c(-c3ccc(F)cc3C(=O)N3CCOC[C@H]3C)cc(C3CN(C(CO)C4CCOCC4)C3)cn12` (stereo partly drawn) [Example 309, 2-[3-(1-fluoro-8-{4-fluoro-2-[(3R)-3-methylmorpholin-4-carbonyl]phenyl}-3-methylimidazo[1,5-a]pyridin-6-yl)azacyclobutan-1-yl]-2-(oxacyclohexan-4-yl)ethan-1-ol], the IC50 rises from 19.5 nM to 60 nM (3.1-fold). The first is the more potent here.

`CCN(C(=O)c1cc(F)ccc1-c1cc(N2CCN(C(=O)[C@@H]3Cc4ccccc4CN3)CC2)cn2c(C)nc(Cl)c12)C(C)C` [Example 116] and `CCN(C(=O)c1cc(F)ccc1-c1cc(N2CCN(C(=O)C3NCCC3c3ccccc3)CC2)cn2c(C)nc(Cl)c12)C(C)C` (stereo not shown) [Example 127] are within 1.5-fold of each other in IC50: 52 nM for the first, 73.5 nM for the second.

First: CCN(C(=O)c1cc(F)ccc1-c1cc(CC2CN([C@@H](CCCN(C)CCOC)C(C)C)C2)n2c(C)cncc12)C(C)C [Example 296-2, N-ethyl-5-fluoro-2-[6-({1-[(3S)-6-[(2-methoxyethyl)(methyl)amino]-2-methylhexan-3-yl]azacyclobutan-3-yl}methyl)-4-methylpyrrolo[1,2-a]pyrazin-8-yl]-N-(isopropyl)benzamide]
Second: Cc1cncc2c(-c3ccc(F)cc3C(=O)N(C)C(C)C)cc(CC3CN([C@@H](CCCN4CCN(CCO)CC4)C(C)C)C3)n12 [Example 477-2, 5-fluoro-2-[6-({1-[(3S)-6-[4-(2-hydroxylethyl)piperazin-1-yl]-2-methylhexan-3-yl]azacyclobutan-3-yl}methyl)-4-methylpyrrolo[1,2-a]pyrazin-8-yl]-N-methyl-N-(isopropyl)benzamide]
The IC50 of the first is 9-fold lower: 3 nM for the first, 27 nM for the second.

First: COC1(CN2CC(c3cc(-c4ccc(F)cc4C(=O)N4CCOC[C@H]4C)c4c(F)nc(C)n4c3)C2)CCOCC1 [Example 236]
Second: Cc1nc(F)c2c(-c3ccc(F)cc3C(=O)N3CCOC[C@H]3C)cc(C3CN([C@@H](CN4CCN(C)CC4)C(C)C)C3)cn12 [Example 368-1, (3R)-4-[5-fluoro-2-(1-fluoro-3-methyl-6-{1-[(2R)-3-methyl-1-(4-methylpiperazin-1-yl)butan-2-yl]azacyclobutan-3-yl}imidazo[1,5-a]pyridin-8-yl)benzoyl]-3-methylmorpholine]
The IC50 of the first is 7.8-fold higher: 180 nM for the first, 23 nM for the second.

Going from `CCC(=O)N1CCN(CCC[C@H](C(C)C)N2CC(c3cc(-c4ccc(F)cc4C(=O)N4CCOC[C@H]4C)c4c(F)nc(C)n4c3)C2)CC1` [Example 335] to `COC1CCN(CCCC(C(C)C)N2CC(c3cc(-c4ccc(F)cc4C(=O)N4CCOCC4C)c4c(F)nc(C)n4c3)C2)C1` (stereo not shown) [Example 201-2], the IC50 rises from 8 nM to 56 nM (7-fold). The first is the more potent here.

Going from `Cc1ncc2c(-c3ccc(F)cc3C(=O)N3CCOC[C@H]3C)cc(C3CN([C@@H](CCCN4CCN(C)CC4)C(C)C)C3)cn12` [Example 323-1, (3R)-4-[5-fluoro-2-(3-methyl-6-{1-[(3S)-2-methyl-6-(4-methylpiperazin-1-yl)hexan-3-yl]azacyclobutan-3-yl}imidazo[1,5-a]pyridin-8-yl)benzoyl]-3-methylmorpholine] to `CCN(C(=O)c1cc(F)ccc1-c1cc(C2CN([C@H](CCCN3CCN(C4(C#N)COC4)CC3)C(C)C)C2)cn2c(C)ncc12)C(C)C` [Example 487, 2-(6-{1-[(3R)-6-[4-(3-cyanooxacyclobutan-3-yl)piperazin-1-yl]-2-methylhexan-3-yl]azacyclobutan-3-yl}-3-methylimidazo[1,5-a]pyridin-8-yl)-N-ethyl-5-fluoro-N-(isopropyl)benzamide], the IC50 falls from 179 nM to 2.2 nM (81-fold). The second is the more potent here.

Going from `CCN(C(=O)c1cc(F)ccc1-c1cc(C2CCN(CC3CCN(c4nnc(C)o4)CC3)C2)cn2cncc12)C(C)C` (stereo not shown) [Example 46] to `CCN(C(=O)c1cc(F)ccc1-c1cc(C2CCN(C(=O)[C@H]3N[C@@H]4CC[C@H]3C4)C2)cn2cncc12)C(C)C` (stereo partly drawn) [Example 38, 2-(6-{1-[(1R,3S,4S)-2-azabicyclo[2.2.1]heptan-3-carbonyl]pyrrolidin-3-yl}imidazo[1,5-a]pyridin-8-yl)-N-ethyl-5-fluoro-N-(isopropyl)benzamide], the IC50 rises from 62.5 nM to 128 nM (2-fold). The first is the more potent here.

`CCN(C(=O)c1cc(F)ccc1-c1cc(C2CN([C@@H](CN3CCN(CCO)CC3)C(C)C)C2)cc2c1cnn2C)C(C)C` [Example 416-1, N-ethyl-5-fluoro-2-(6-{1-[(2R)-1-[4-(2-hydroxyethyl)piperazin-1-yl]-3-methylbutan-2-yl]azacyclobutan-3-yl}-1-methyl-1H-indazol-4-yl)-N-(isopropyl)benzamide] and `CCN(C(=O)c1cc(F)ccc1-c1cc(C2CN([C@@H](CCCN3CCN(CCO)CC3)C(C)C)C2)cc2c1cnn2C)C(C)C` [Example 400-1] are within 1.5-fold of each other in IC50: 150 nM for the first, 220 nM for the second.

First: Cc1ncc2c(-c3ccc(F)cc3C(=O)N(CC(F)F)C(C)C)cc(N3CCN(C(=O)[C@@H]4CCCN4)CC3)cn12 [Example 119]
Second: CCN(C(=O)c1cc(F)ccc1-c1cc(N2CCN(C(=O)[C@@H]3CCCN3)CC2)c(Cl)n2c(C)ncc12)C(C)C [Example 115, 2-(5-chloro-3-methyl-6-{4-[(2S)-pyrrolidin-2-carbonyl]piperazin-1-yl}imidazo[1,5-a]pyridin-8-yl)-N-ethyl-5-fluoro-N-(isopropyl)benzamide]
The IC50 of the first is 3.7-fold lower: 41 nM for the first, 152 nM for the second. The first is the more potent here.

Work on `CCN(C(=O)c1cc(F)ccc1-c1cc(N2CCN(CCc3ccc(-c4cc(OC)c(OC)nn4)cc3)CC2)cn2c(C)ncc12)C(C)C` [Compound 70, 2-[6-(4-{2-[4-(5,6-dimethoxypyridazin-3-yl)phenyl]ethyl}piperazin-1-yl)-3-methylimidazo[1,5-a]pyridin-8-yl]-N-ethyl-5-fluoro-N-(isopropyl)benzamide] yielded an IC50 of 93 nM.

Source: patent publication EP4782453A1 (Beyang Therapeutics Co., Ltd., priority 2023, dated 2025)
